pIC50: −log10 of the molar value. Read-outs that look alike come from different tables or passages of the source.
What was measured:
[1] = target: T1, mineralcorticoid receptor (Homo sapiens, UniProt P08235); experiment: MR antagonism luciferase reporter cell line assay; format: cell-based
T1 sequence (P08235 1-984): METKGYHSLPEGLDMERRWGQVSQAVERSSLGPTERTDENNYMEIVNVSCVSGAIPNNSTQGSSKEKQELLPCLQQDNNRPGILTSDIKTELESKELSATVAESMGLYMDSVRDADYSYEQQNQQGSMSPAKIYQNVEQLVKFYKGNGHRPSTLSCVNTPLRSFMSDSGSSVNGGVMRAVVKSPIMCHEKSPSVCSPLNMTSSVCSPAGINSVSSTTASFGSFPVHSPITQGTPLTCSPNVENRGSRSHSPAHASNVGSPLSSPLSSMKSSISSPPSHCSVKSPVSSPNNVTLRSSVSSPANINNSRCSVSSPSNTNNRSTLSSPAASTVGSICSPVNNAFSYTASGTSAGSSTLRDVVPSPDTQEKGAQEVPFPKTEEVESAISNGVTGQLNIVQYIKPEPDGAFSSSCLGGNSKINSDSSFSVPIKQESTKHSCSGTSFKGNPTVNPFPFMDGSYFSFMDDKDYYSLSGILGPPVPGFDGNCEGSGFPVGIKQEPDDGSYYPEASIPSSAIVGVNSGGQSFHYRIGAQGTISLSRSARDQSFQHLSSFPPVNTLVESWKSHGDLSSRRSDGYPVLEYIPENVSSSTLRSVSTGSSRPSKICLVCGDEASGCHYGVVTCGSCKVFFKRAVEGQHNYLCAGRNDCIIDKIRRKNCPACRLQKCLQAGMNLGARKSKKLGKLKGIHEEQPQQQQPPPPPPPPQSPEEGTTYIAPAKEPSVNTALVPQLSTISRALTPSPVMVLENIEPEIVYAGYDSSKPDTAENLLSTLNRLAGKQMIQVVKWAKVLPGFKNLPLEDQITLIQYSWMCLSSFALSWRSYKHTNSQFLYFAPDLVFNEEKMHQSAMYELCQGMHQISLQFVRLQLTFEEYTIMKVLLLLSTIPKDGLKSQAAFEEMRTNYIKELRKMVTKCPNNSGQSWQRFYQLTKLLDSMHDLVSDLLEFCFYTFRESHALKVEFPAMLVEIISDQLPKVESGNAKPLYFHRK
Procedure: The derivatives according to the invention having the general chemical formula have a very strong gestagenic activity. […] They should therefore have in vivo potassium-retaining, natriuretic (antimeralcorticoid) action. These properties were determined using the test described below:
For the culturing of the cells used for the assay, the culture medium used was DMEM (Dulbecco's Modified Eagle Medium: […] of glucose; PAA, #E15-009) with 10% FCS (Biochrom, S0115, batch #615B), 4 mM L-glutamine, 1% penicillin/streptomycin, 1 mg/ml of G418 and 0.5 μg/ml of puromycin.
Reporter cell lines were grown in a density of 4×10^4 cells per hollow in white, nontransparent tissue culture plates in each case having 96 hollows (PerkinElmer, #P12-106-017) and kept in 6% DCC-FCS (activated carbon-treated serum, for the removal of interfering components contained in the serum). The compounds to be investigated were added eight days later, and the cells were incubated with the compounds for 16 hours. The experiments were carried out in triplicate. At the end of the incubation, the effector-containing medium was removed and replaced by lysis buffer. After luciferase assay substrate (promega, #E1501) had been added, the plates containing the 96 hollows were then introduced into a microplate luminometer (Pherastar, BMG labtech), and the luminescence was measured. The […] values were evaluated using software for the calculation of dose-activity relationships.

PR = target: T2, PR (Rattus norvegicus, UniProt Q63449); experiment: maintenance of pregnancy test on the rat; format: in vivo; details: ovarectomized pregnant rats; for PR in vivo ED50 (pregnancy-maintaining dose): s.c. once daily from day 8 to day 15 or 21, with oestrone 5 μg/kg/day
T2 construct: from tissue; host or cells: whole animal: pregnant, ovariectomized rats
T2 sequence (Q63449 1-923): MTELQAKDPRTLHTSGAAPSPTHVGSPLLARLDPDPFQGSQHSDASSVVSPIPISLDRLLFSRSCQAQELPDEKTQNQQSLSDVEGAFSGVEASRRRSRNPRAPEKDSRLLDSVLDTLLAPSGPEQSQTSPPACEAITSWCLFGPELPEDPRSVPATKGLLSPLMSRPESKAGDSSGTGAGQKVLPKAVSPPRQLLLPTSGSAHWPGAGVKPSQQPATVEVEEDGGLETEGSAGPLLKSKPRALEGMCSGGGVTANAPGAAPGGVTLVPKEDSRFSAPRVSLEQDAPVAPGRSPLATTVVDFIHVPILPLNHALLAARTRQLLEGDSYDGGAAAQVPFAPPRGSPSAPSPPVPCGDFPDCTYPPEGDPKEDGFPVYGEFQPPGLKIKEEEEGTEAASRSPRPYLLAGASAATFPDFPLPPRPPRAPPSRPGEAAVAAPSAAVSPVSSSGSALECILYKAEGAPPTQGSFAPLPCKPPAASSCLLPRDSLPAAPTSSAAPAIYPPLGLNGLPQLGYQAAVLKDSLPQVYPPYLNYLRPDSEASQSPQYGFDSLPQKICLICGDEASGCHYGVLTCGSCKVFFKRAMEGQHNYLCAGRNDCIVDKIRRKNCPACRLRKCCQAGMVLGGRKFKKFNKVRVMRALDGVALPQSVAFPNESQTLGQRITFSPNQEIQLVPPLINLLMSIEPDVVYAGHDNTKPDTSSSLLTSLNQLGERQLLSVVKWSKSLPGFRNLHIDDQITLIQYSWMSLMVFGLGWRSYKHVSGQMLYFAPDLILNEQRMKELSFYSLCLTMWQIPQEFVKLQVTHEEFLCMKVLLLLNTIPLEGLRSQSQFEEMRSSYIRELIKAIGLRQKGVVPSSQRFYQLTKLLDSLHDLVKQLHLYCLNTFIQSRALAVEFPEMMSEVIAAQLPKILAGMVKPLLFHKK
Description: Carrying out the maintenance of pregnancy test on the rat:
In pregnant rats, the removal of the corpora lutea or oophorectomy induces an abortion. By means of the exogenous administration of progestins (gestagens) in combination with a suitable dose of an oestrogen, the maintenance of pregnancy is possible. The maintenance of pregnancy test on ovarectomized rats serves for the determination of the peripheral gestagenic activity of a compound.
Rats were paired overnight during proestrus. Pairing was checked on the morning of the following day by the appraisal of a vaginal smear. The presence of the sperm was evaluated here as day 1 of a commencing pregnancy. On day 8 of the pregnancy, the animals were ovarectomized under ether anaesthesia. The treatment with test compound and exogenous oestrogen (oestrone, 5 μg/kg/day) was carried out subcutaneously once daily from day 8 to day 15 or day 21 of the pregnancy. The first administration on day 8 was carried out two hours before oophorectomy. Intact control animals were given exclusively vehicle.
At the end of the experiment (day 15 or day 21), the animals were sacrificed under a CO2 atmosphere, and live foetuses (foetuses having a beating heart) and implantation sites (early resorptions and dead foetuses including autolysis and atrophic placentas) were counted in both uterine horns. On day 22, it was moreover possible to examine foetuses for malformations. In uteri without foetuses or implantation sites, the number of nidation sites was determined by staining with 10% strength ammonium sulphide solution. The maintenance of pregnancy rate was calculated as the quotient of the number of living foetuses and the total number of nidation sites (both resorbed and dead foetuses and nidation sites). For drospirenone, this value is 3.5 mg/kg/day.

[2] = reporter cell lines, 16 hours incubation, luciferase luminescence
[3] = reporter cell lines, 16 hours incubation, luciferase luminescence, read-out: MR Antagonism IC50

| Structure (SMILES) | pIC50 [1] | MR Antagonism activity [% of the maximum effect] [1, 2] | PR in vivo ED50 (pregnancy-maintaining dose) (PR) [mg/kg/d s.c.] | pIC50 [1, 3] | pregnancy-maintaining dose (ED50) (PR; subcutaneous, with oestrone 5 μg/kg/day) [mg/kg/day] |
| --- | --- | --- | --- | --- | --- |
| C[C@]12CC[C@H]3[C@@H](CC4(CC4)C4=CC(=O)CC[C@@]43C)[C@@H]1CC[C@@H]2C#N | 7.70 | 99.16 % of the maximum effect | 25.0 |  |  |
| C[C@]12CC[C@H]3[C@@H]([C@H]4C[C@H]4C4=CC(=O)CC[C@@]43C)[C@@H]1[C@@H]1C[C@@H]1[C@@H]2C#N [6β,7β-15β,16β-Bismethylene-17β-cyanoandrost-4-en-3-one] | 8.33 | 98.06 % of the maximum effect | 7.3 |  |  |
| C=CC[C@]1(C#N)CC[C@H]2[C@@H]3CCC4=CC(=O)CC[C@]4(C)[C@H]3CC[C@@]21C [17α-Allyl-17β-cyanoandrost-4-en-3-one] |  | 65.30 % of the maximum effect |  | 6.00 |  |
| C[C@]12CCC(=O)C=C1CC[C@H]1[C@@H]3[C@@H]4C[C@@H]4[C@](C)(C#N)[C@@]3(C)CC[C@@H]12 [17β-Cyano-17α-methyl-15β,16β-methyleneandrost-4-en-3-one] |  | 98.30 % of the maximum effect | 10.0 | 7.38 |  |
| C[C@]12CCC(=O)C=C1[C@@H]1C[C@@H]1[C@H]1[C@@H]3[C@@H]4C[C@@H]4[C@@]4(CCC(=O)O4)[C@@]3(C)CC[C@@H]12 [drospirenone, 6β,7β-15β,16β-dimethylene-3-oxo-17-pregn-4-ene-21,17β-carbolactone, reference compound] |  |  |  |  | 3.5 |

— US20100292184A1, “17BETA-CYANO-19-ANDROST-4-ENE DERIVATIVE, ITS USE AND MEDICAMENTS COMPRISING THE DERIVATIVE” (BAYER SCHERING PHARMA AG, priority 2007, published 2010)
